Measured values as given in ChEMBL document CHEMBL5512671, “Structure-Based Optimization of Novel Sterol 24-C-Methyltransferase Inhibitors for the Treatment of Candida albicans Infections” (J Med Chem, 2024).
Activity calls are given as the source filed them. The rule behind the calls is not given here.

Columns and labels:
Candida albicans [1] = experiment: Antifungal activity against Candida albicans SC5314 assessed as inhibition of hyphae growth incubated for 24 hrs by CLSI protocol based broth microdilution method; format: functional
[2] = Hemolytic activity in mouse RBC assessed as hemolysis at 2 to 32 ug/ml incubated for 60 mins by absorbance based analysis relative to control; format: toxicity, cell-based, Erythrocyte; conditions: mouse red blood cells, at 2 to 32 µg/mL, dose 2-32 µg/ml, read-out: Activity
[3] = biological target: T1, Sterol 24-C-methyltransferase (Candida albicans (strain SC5314 / ATCC MYA-2876) (Yeast)) (UniProt O74198); experiment: Inhibition of Candida albicans SC5314 Erg6 assessed as fold increase in zymosterol content at 1 ug/ml incubated for 12 hrs by GC-MS analysis; conditions: dose 1.0 µg/ml
T1 sequence (whole entry): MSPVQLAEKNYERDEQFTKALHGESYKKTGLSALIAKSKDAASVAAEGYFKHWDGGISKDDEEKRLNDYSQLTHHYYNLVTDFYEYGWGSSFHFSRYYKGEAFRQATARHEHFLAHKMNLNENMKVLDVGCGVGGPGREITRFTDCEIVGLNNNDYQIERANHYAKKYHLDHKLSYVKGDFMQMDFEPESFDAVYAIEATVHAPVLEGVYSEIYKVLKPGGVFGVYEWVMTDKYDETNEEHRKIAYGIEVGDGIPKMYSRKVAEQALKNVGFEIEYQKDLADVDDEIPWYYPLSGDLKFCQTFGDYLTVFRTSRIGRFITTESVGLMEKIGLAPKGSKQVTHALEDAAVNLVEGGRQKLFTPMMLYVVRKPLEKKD

[4] = biological target: T2, Sterol 24-C-methyltransferase (Candida albicans (strain SC5314 / ATCC MYA-2876) (Yeast), UniProt O74198); experiment: Inhibition of recombinant Candida albicans SC5314 Erg6 methyltransferase activity using zymosterol as substrate incubated for 15 mins followed by substrate addition by liquid scintillation counter analysis
T2 sequence (O74198 whole entry): T1 sequence (whole entry)

Candida albicans [5] = experiment: Downregulation of RAS1 gene level in Candida albicans SC5314 at 1 ug/ml incubated for 6 hrs by qPCR analysis; format: functional; conditions: dose 1.0 µg/ml
Candida albicans [6] = experiment: Downregulation of UME6 expression in Candida albicans SC5314 at 1 ug/ml incubated for 6 hrs by qPCR analysis; format: functional; conditions: dose 1.0 µg/ml
Candida albicans [7] = experiment: Downregulation of ALS3 expression in Candida albicans SC5314 at 1 ug/ml incubated for 6 hrs by qPCR analysis; format: functional; conditions: dose 1.0 µg/ml
[Candida] auris [8] = Antifungal activity against Candida auris CBS12774 assessed as inhibition of fungal growth incubated for 24 hrs by CLSI protocol based broth microdilution method; format: functional; conditions: Candidozyma auris
Nakaseomyces glabratus [9] = experiment: Antifungal activity against Candida glabrata CG2 assessed as inhibition of fungal growth incubated for 24 hrs by CLSI protocol based broth microdilution method; format: functional
[Candida] auris [10] = Antifungal activity against Candida auris CBS12774 assessed as effect on cell size at 1 ug/ml measured after 6 hrs by microscopy based analysis; format: functional, organism-based; conditions: Candidozyma auris, dose 1.0 µg/ml
Candida parapsilosis = experiment: Antifungal activity against Candida parapsilosis CP1 assessed as effect on structure at 1 ug/ml measured after 6 hrs by microscopy based analysis; format: functional, organism-based; conditions: dose 1.0 µg/ml
Nakaseomyces glabratus [11] = experiment: Antifungal activity against Candida glabrata CG2 assessed as inhibition of hyphae formation at 1 ug/ml measured after 6 hrs by microscopy based analysis; format: functional, organism-based; conditions: dose 1.0 µg/ml
Nakaseomyces glabratus [12] = experiment: Antifungal activity against Candida glabrata CG2 assessed as effect on cell size at 1 ug/ml measured after 6 hrs by microscopy based analysis; format: functional, organism-based; conditions: dose 1.0 µg/ml
Nakaseomyces glabratus [13] = experiment: Antifungal activity against Candida glabrata CG2 assessed as effect on cell structure at 1 ug/ml measured after 6 hrs by microscopy based analysis; format: functional, organism-based; conditions: dose 1.0 µg/ml
Candida albicans [14] = experiment: Synergistic antifungal activity against Candida albicans SC5314 assessed as inhibition of fungal growth incubated for 24 hrs in presence of tridemorph by broth microdilution checkerboard assay; format: functional
Candida albicans [15] = experiment: Synergistic antifungal activity against Candida albicans SC5314 assessed as inhibition of fungal growth incubated for 24 hrs in presence of terbinafine by broth microdilution checkerboard assay; format: functional
Candida albicans [16] = experiment: Fungistatic activity against Candida albicans SC5314 at 1 ug/ml incubated for 3 hrs in presence of tridemorph by SYTOX staining based analysis; format: functional, organism-based; conditions: dose 1.0 µg/ml
Candida albicans [17] = experiment: Fungistatic activity against Candida albicans SC5314 at 1 ug/ml incubated for 3 hrs in presence of terbinafine by SYTOX staining based analysis; format: functional, organism-based; conditions: dose 1.0 µg/ml
Candida albicans [18] = experiment: Antifungal activity against Candida albicans SC5314 infected in Balb/C mouse candidiasis model assessed as decrease in skin fungal burden by measuring fold change at 0.5% administered topically and measured after 72 hrs; format: functional
Candida albicans [19] = experiment: Antifungal activity against Candida albicans SC5314 infected in Balb/C mouse candidiasis model assessed as decrease in skin fungal burden by measuring fold change at 0.5 % administered topically and measured after 72 hrs in presence of tridemorph; format: functional
Candida albicans [20] = experiment: Antifungal activity against Candida albicans SC5314 infected in Balb/C mouse candidiasis model assessed as decrease in skin fungal burden by measuring fold change at 0.5 % administered topically and measured after 72 hrs in presence of terbinafine; format: functional
Candida albicans [21] = experiment: Antifungal activity against Candida albicans SC5314 infected in Balb/C mouse candidiasis model assessed as filamentation defect at 0.5 % administered topically and measured after 72 hrs by PAS staining based analysis; format: functional, organism-based
Candida albicans [22] = experiment: Antifungal activity against Candida albicans SC5314 infected in Balb/C mouse candidiasis model assessed as filamentation defect at 0.5 % administered topically and measured after 72 hrs in presence of tridemorph by PAS staining based analysis; format: functional, organism-based
Candida albicans [23] = experiment: Antifungal activity against Candida albicans SC5314 infected in Balb/C mouse candidiasis model assessed as appearance of inflammatory infiltrates at 0.5 % administered topically and measured after 72 hrs by H and E staining based analysis; format: functional, organism-based
Candida albicans [24] = experiment: Antifungal activity against Candida albicans SC5314 infected in Balb/C mouse candidiasis model assessed as appearance of inflammatory infiltrates at 0.5 % administered topically and measured after 72 hrs in presence of tridemorph by H and E staining based analysis; format: functional, organism-based
Candida albicans [25] = experiment: Antifungal activity against Candida albicans CAI4/pBA1-ERG6 assessed as inhibition of hyphae growth incubated for 24 hrs by CLSI protocol based broth microdilution method; format: functional, organism-based
Candida albicans [26] = experiment: Antifungal activity against Candida albicans SC5314 assessed as inhibition of hyphae growth measured after 6 hrs cultured under RPMI1640 medium/5% serum by microscopy based analysis; format: functional, organism-based; conditions: dose 0.25-1 µg/ml
Candida albicans [27] = experiment: Antifungal activity against Candida albicans SC5314 assessed as inhibition of morphological transition at 0.5 ug/ml measured after 5 days cultured under solid spider agar medium by microscopy based analysis relative to control; format: functional; parameters: scale not given: the % may be the effect or the level left; conditions: dose 0.5 µg/ml; time 5 day
Candida albicans [28] = experiment: Antifungal activity against Candida albicans SC5314 assessed as inhibition of morphological transition at 0.5 ug/ml measured after 5 days cultured under YPD embedded agar medium by microscopy based analysis relative to control; format: functional; parameters: scale not given: the % may be the effect or the level left; conditions: dose 0.5 µg/ml; time 5 day
Candida albicans [29] = experiment: Inhibition of cell adhesion in Candida albicans SC5314 to human HGE cells measured after 90 mins by fluorescence microscopy based analysis; format: functional; conditions: dose 0.5-2 µg/ml
Candida albicans [30] = experiment: Antibiofilm activity against Candida albicans CA14-TDH3-GFP at 0.5 to 2 ug/ml incubated for 24 hrs by XTT reduction assay; format: functional, organism-based; conditions: dose 0.5-2 µg/ml

Work on Cc1c(-n2c(-c3ccc4ccccc4c3)cs/c2=N\c2ccccc2)c(=O)n(-c2ccccc2)n1C yielded an MIC50 (Candida albicans [1]) greater than 128 µg/mL, a hemolysis at 1 h [2] of less than 1% and a fold change (FC) [3] of 11. The IC50 [4] was 273 nM, the Activity (Candida albicans [5]) was “Active” and the Activity (Candida albicans [6]) was “Active”. For the same compound, the Activity (Candida albicans [7]) was “Active”, the MIC ([Candida] auris [8]) was greater than 128 µg/mL and the MIC (Nakaseomyces glabratus [9]) was greater than 128 µg/mL. For the same compound, the Activity ([Candida] auris [10]) was “inactive”, the Activity (Candida parapsilosis) was “inactive” and the Activity (Nakaseomyces glabratus [11]) was “Active”. For the same compound, the Activity (Nakaseomyces glabratus [12]) was “inactive”, the Activity (Nakaseomyces glabratus [13]) was “inactive” and the MIC80 (Candida albicans [14]) was 1 µg/mL. For the same compound, the MIC80 (Candida albicans [15]) was 1 µg/mL, the Activity (Candida albicans [16]) was “Active” and the Activity (Candida albicans [17]) was “Active”. For the same compound, the “fold change (FC)” value (Candida albicans [18]) was 2.86, the “fold change (FC)” value (Candida albicans [19]) was 60.26 and the “fold change (FC)” value (Candida albicans [20]) was 59.11. The Activity (Candida albicans [21]) was “Active”, the Activity (Candida albicans [22]) was “Active” and the Activity (Candida albicans [23]) was “Active”. For the same compound, the Activity (Candida albicans [24]) was “inactive”, the Activity (Candida albicans [25]) was “Active” and the Activity (Candida albicans [26]) was “Dose-Dependent Effect”. The Activity (Candida albicans [27]) was 100%, the Activity (Candida albicans [28]) was 100% and the inhibition (Candida albicans [29]) was “Dose-Dependent Effect”. The Activity (Candida albicans [30]) was “Active”.
